Measured values taken from patent US8440460B2, “Methods for transdifferentiating cells” (The Board of Regents of the University of Texas System, priority 2005, dated 2013).
Values joined by “and” are separate entries in the source; they are usually repeats but may differ in a detail not shown here. Equal entries are not always repeated.

Tests used:
[1] = system: normal bone marrow-derived CD45-negative MSCs; assay: FACS analysis of endothelial markers CD133 and VEGFR-2 in treated bone marrow-derived CD45-negative MSCs; type: cell-based, human; conditions: five ng/mL 5-azacytidine days 1 and 4, 100 ng/mL EGF days 7 and 10; FACS day 13
Experimental: FIG. 9: Conversion of normal human bone marrow stroma to endothelial progenitor cells by 5-azacytidine and endothelial growth factor (EGF). Normal bone marrow-derived CD45-negative MSCs were used in this experiment and Five ng/mL of 5-azacytidine was added to culture on days 1 and 4, and 100 ng/mL EGF were added on days 7 and 10. The cultures were analyzed on day 13. The cells were stained with anti-CD133 APC and anti-VEGFR-2 PE antibodies and analyzed by FACS as described above. […] Note that the when treated with AZA+EGF 7.34% of MSC become CD133^+VEGFR-2^+.
In the next set of experiments the inventors determined whether fibroblasts could be reprogrammed to generate endothelial cells. […] Then, the cells were analyzed for the expression of two endothelial cell markers; the endothelial progenitor marker CD-133, as well as the expression of vascular endothelial growth factor-2 receptor (VEGFR-2).
In particular, normal bone marrow-derived CD45-negative mesenchymal cells (ie., bone marrow-derived fibroblastic cells) were used in this experiment and five ng/mL of 5-azacytidine was added to culture on days 1 and 4, and 100 ng/ml EGF were added on days 7 and 10. The cultures were analyzed on day 13. The cells were stained with anti-CD133 APC and anti-VEGFR-2 PE antibodies and analyzed by FACS as described above. […]

[2] = system: HS-5 fibroblast cell line; assay: FACS analysis of hematopoietic cell surface markers (CD45, CD3, CD14, CD19) in treated HS-5 cells; type: cell-based, human; conditions: 5-azacytidine days 1 and 4, GM-CSF 50 ng/mL and SCF 50 ng/mL days 7 and 10 (FIG. 1 schedule), FACS day 13
Experimental: In these studies, HS-5 fibroblast cells were transferred to tissue culture flasks as described herein. 2.5 μg 5-azacytidine were added to the culture at days 1 and 4. Granulocyte macrophage colony-stimulating factor (GM-CSF; 50 ng/mL) and stem cell factor (SCF; 50 ng/mL) were added to the culture on days 7 and 10. The cells were harvested and analyzed for the presence of hematopoietic cell surface markets such as CD45 on day 13.
The human bone marrow stroma/MSC cell line HS-5 was obtained from ATCC. These fibroblast-like cells are plastic adherent and grow as a single layer in α-medium (GIBCO, Grand Island, N.Y.) supplemented with 10% fetal calf serum (FCS; Hyclone, Logan, Utah). […] When growth factors were added, α-medium was replaced with Iscove's modified Dulbecco's medium (IMDM; GIBCO).
For the HS-5 cultures, HS-5 fibroblast cells were transferred to tissue culture flasks as described. […] The cells were harvested and analyzed for the presence of hematopoietic cell surface markets such as CD45 on day 13.
In these studies, HS-5 cells were incubated with or without 5-azacytidine and/or growth factors according to the schedule described in FIG. 1. On day 13 the cells were harvested and analyzed for the presence of cell surface CD45 by FACS. All viable cells were analyzed and the CD45-corresponding isotypic control was used.

HS-5 cells [3] = assay: Flow cytometry of 5-methylcytidine as a marker of global DNA methylation in HS-5 cells; type: cell-based, human; conditions: 5-azacytidine 2.5 uM overnight
Experimental: FIG. 3: Azacytidine hypomethylates HS-5 cells. […] HS-5 cells were treated w/ and w/o 5-azacytidine 2.5 uM overnight. After incubation the cells were harvested and washed in PBS. The cells were then fixed and permeabilized using the BD Cytofix/Cytoperm kit (BD Biosciences, San Diego Calif.) as per the kit instructions. After fixation and permeabilization the cells were stained using mouse anti 5-methylcytadine (Serotec Inc., Raleigh N.C.) for 30 minutes. After washing the cells 3 times in the Permwash buffer provided with the BD kit, the mouse antibody was then detected using an RPE labeled rabbit anti mouse IgG (Serotec) for 30 minutes. After 3 additional wash steps, the cells were resuspended in staining buffer (as per the BD kit) and analyzed on a FACSCaliber flow cytometer (BD Immunnocytometry Systems, La Jolla Calif.) for any decrease in 5-methylcytidine. […]
HS-5 cells were treated w/ and w/o 5-azacytidine 2.5 uM overnight. […] After washing the cells 3 times in the Permwash buffer provided with the BD kit, the mouse antibody was then detected using an RPE labeled rabbit anti mouse IgG (Serotec) for 30 minutes. After 3 additional wash steps, the cells were resuspended in staining buffer (as per the BD kit) and analyzed on a FACSCaliber flow cytometer (BD Immunnocytometry Systems, La Jolla Calif.) for any decrease in 5-methylcytidine. […]

HS-5 cells [4] = assay: CFU-GM colony culture assay in methylcellulose; type: cell-based, human; conditions: 14 days
Experimental: FIG. 5: HS-5 cells transdifferentiate into hematopoietic colony-forming cells. Converted (see FIG. 1) and untreated HS-5 cells were harvested from the tissue culture flasks and culture in methylcellulose in a cl0nigtenic assay in the presence of 50 ng/mL GM-CSF, 50 ng/mL SCF and erythropoietin as described above. After 14 days the cultures were examined using an inverted microscope.
Colony-forming unit granulocyte-macrophage (CFU-GM) colony culture assay. The colony-forming unit-granulocyte-macrophage (CFU-GM) clonogenic assay was performed as previously described (49). Briefly, 2×10^5 treated and untreated cells were cultured in 0.8% methylcellulose in IMDM (GIBCO) supplemented with 10% FCS, and 50 ng/ml recombinant human granulocyte-macrophage colony-stimulating factor. […] All cultures were evaluated after 14 days for the number of CFU-GM colonies, defined as a cluster of more than 50 cells containing granulocytes, monocytes and macrophages. To identify the cells comprising the CFU-GM colonies, single colonies were microaspirated at random, transferred to glass slides, dried and stained with Write's stain and microscopically analyzed.
Converted (see FIG. 1) and untreated HS-5 cells were harvested from the tissue culture flasks and culture in methylcellulose in a cl0nigtenic assay in the presence of 50 ng/mL GM-CSF, 50 ng/mL SCF and erythropoietin as described above. […]

[5] = system: normal bone marrow stroma (MSC) CD45-negative cells; assay: FACS analysis of CD45 in treated CD45-negative normal bone marrow stroma cells (MSC); type: cell-based, human; conditions: FIG. 1 schedule
Experimental: Human bone marrow stroma cells were grown from the bone marrow of healthy individuals as described above. When the cultures matured and formed homogenous layers of fibroblast-looking cells (termed mesenchymal stem cells; MSC), the cells were trypsinized and analyzed by fluorescence activated cell scanner/sorter (FACS; above) for the presence of the cell surface marker CD45. When the adherent fibroblast-like MSC became CD45-negative, the cells were harvested and transferred to another tissue flask (day 1 of culture).
Generation of Bone Marrow Stroma Cell Cultures. […] The culture medium and floating cells were completely aspirated and replaced with fresh tissue culture medium. Upon confluence, cells were exposed to 0.05% trypsin and 0.53 mM EDTA (GIBCO) at 37° C. for 10 min. Following incubation, FCS (v/v) was added for 5 min., the cells were removed from the tissue culture flasks, washed in PBS, transferred to new tissue culture flasks at a low density, and incubated with fresh tissue culture media. The cells were expanded and tested until all hematopoietic elements were no more present and all cells were CD45-negative.
For the normal marrow stoma cultures, human bone marrow stroma cells were grown from the bone marrow of healthy individuals as described above. When the cultures had matured and formed homogenous layers of fibroblast-looking cells, the cells were trypsinized and analyzed by fluorescence activated cell scanner/sorter (FACS; above) for the presence of the cell surface marker CD45. When the adherent fibroblast-like cells became CD45-negative, the cells were harvested and transferred to another tissue flask (day 1 of culture).

[6] = system: normal human foreskin fibroblasts; conditions: FIG. 2 schedule, FACS day 6

EGF: epidermal growth factor
CD133+VEGFR-2+ cells [1]: < 1.5%

Nc1ncn([C@@H]2O[C@H](CO)[C@@H](O)[C@H]2O)c(=O)n1 [5-azacytidine]
cells expressing CD45 [2]: 3.5% and 11%
effect on 5-methylcytidine (DNA methylation) (HS-5 cells [3]): hypomethylates
microscopic evaluation of the colonies (HS-5 cells [4]): characteristics of mixed granulocyte macrophage lineage
CD45 expression (in words) ([5]; FACS day 13): slightly increased
CD45 expression (in words) ([5]; FACS day 13, listed as 5-Azacytidine): unable to give rise to a significant number of blood cells
CD45 expression (in words) ([5]; FACS day 13, listed as 5-azcytidine): remained CD45-negative
CD133+VEGFR-2+ cells [1]: 4.14%
conversion into CD45-positive cells (in words) [6]: converted them into CD45-positive cells
lateral/forward scatter analysis of the cell population [6]: generates a new transdifferentiated (“differentiated”) population of cells
